This note sets out measurements from ChEMBL document CHEMBL1201862, “PubChem BioAssay data set” (2004).

Experiment [1] has as its target T1, Corticotropin-releasing factor receptor 2/Corticotropin-releasing factor-binding protein (Homo sapiens, UniProt P24387+Q13324).
T1 sequence (Q13324 whole entry): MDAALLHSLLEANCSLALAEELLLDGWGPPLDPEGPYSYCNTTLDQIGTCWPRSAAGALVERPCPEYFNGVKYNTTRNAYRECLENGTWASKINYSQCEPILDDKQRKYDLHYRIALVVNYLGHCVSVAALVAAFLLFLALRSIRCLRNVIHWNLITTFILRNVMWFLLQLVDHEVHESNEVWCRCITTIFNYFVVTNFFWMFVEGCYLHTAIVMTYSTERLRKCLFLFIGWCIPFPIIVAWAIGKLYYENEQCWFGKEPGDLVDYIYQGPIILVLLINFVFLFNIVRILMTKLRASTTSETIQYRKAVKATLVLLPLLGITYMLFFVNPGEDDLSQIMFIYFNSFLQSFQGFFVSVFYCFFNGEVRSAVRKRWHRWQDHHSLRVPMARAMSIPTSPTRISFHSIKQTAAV
T1 sequence (P24387 whole entry): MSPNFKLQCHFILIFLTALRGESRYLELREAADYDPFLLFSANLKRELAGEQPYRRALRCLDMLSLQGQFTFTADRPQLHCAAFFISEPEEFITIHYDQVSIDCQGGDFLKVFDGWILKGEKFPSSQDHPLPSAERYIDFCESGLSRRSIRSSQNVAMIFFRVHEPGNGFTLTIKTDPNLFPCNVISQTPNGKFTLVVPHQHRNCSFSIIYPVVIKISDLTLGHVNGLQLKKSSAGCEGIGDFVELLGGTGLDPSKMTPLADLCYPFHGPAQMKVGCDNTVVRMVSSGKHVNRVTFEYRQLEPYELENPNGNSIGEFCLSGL
Kind of experiment: activators of CRF receptor 2 with binding protein – uHTS hits, confirmation (AID 602473). The class given is functional. The note with it: read-out: EC50_Mean.

A further experiment addresses Prothrombin (Homo sapiens, UniProt P00734). Kind of experiment: Thrombin 1536 HTS Dose Response Confirmation. [Related pubchem assays: 1046 (Thrombin 1536 HTS; hits were confirmed in this assay)]. The format is functional.
For experiment [2], the target named is T2, Voltage-gated N-type calcium channel alpha-1B subunit/Amyloid beta A4 precursor protein-binding family A member 1 (Homo sapiens, UniProt Q00975+Q02410). The format is protein assay.
The target of experiment [3] is T2, Voltage-gated N-type calcium channel alpha-1B subunit/Amyloid beta A4 precursor protein-binding family A member 1. The class given is protein assay. This is another data set of the same source.
A further experiment addresses T3, Streptokinase A (Streptococcus pyogenes serotype M1, UniProt P10520).
T3 sequence (P10520 whole entry): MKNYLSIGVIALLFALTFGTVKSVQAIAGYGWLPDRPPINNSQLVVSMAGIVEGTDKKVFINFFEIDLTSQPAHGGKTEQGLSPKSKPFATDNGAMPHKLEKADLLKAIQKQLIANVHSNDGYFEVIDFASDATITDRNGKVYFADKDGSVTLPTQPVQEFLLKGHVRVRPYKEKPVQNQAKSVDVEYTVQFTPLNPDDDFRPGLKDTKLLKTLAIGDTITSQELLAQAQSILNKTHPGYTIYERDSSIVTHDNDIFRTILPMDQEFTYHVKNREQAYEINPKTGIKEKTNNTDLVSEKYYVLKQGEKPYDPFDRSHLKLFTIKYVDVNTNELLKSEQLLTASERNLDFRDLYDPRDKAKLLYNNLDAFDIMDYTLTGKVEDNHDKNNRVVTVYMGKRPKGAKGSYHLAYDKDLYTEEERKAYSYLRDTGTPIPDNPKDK
Nature of the experiment: viability-normalized secreted streptokinase activity reduction – plasminogen activation absorbance, OD405, dose response (AID 1914).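 Further: secreted streptokinase activity via plasminogen activation per viability signal from cell pellet.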 The format is functional, Streptococcus pyogenes M1 GAS.

The test system of the next experiment is Streptococcus. Nature of the experiment: GAS UMAA2166 growth inhibition – luminescence, BacTiterGlo, counter-screen for streptokinase expression inhibitor project, dose response (AID 1915).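 Further: potency for reduction of bacterial viability or growth.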 The class given is functional, organism-based. (In general: Counterscreens check selectivity or assay interference.)
Experiment [4] is described as follows: THP-1 cell cytotoxicity, dose response, cytotoxicity control for non-replicating M. tuberculosis project (AID 489025). The class given is functional.
A further experiment can be described thus: cells. The class given is functional.
The subject of experiment [5] is Streptococcus sp. 'group A'. Kind of experiment: Streptococcus pyogenes SK(-)GAS viability under kanamycin – luminescence, BacTiterGlo, confirmation, counter-screen for streptokinase expression inhibitor project, dose response (AID 1900). The format is functional, organism-based.
A short description of experiment [6]: Vero E6 cell cytotoxicity, dose response, cytotoxicity control for non-replicating M. tuberculosis project, secondary assay (AID 492998). The class given is functional, VeroE6. The note with it: Vero C1008.
The target of experiment [7] is Peroxisome proliferator-activated receptor gamma/Nuclear receptor coactivator 1 (Homo sapiens, UniProt P37231). The class given is functional.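 Further: agonist potency as compounds enhance coactivator SRC-1 recruitment to PPARgamma.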
Peroxisome proliferator-activated receptor gamma/Nuclear receptor coactivator 1, sequence (P37231 whole entry): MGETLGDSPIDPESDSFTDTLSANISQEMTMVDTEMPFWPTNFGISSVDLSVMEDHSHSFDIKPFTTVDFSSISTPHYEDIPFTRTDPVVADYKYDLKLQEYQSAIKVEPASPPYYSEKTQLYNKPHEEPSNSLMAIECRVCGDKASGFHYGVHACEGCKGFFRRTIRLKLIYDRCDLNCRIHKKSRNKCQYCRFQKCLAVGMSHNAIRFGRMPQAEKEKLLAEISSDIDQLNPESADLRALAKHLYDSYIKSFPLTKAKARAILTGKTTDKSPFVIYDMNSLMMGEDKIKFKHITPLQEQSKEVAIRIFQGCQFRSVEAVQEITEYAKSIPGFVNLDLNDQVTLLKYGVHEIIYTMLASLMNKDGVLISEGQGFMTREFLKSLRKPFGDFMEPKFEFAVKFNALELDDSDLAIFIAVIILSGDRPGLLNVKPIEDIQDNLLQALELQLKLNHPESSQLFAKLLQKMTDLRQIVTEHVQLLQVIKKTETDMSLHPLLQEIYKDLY
Peroxisome proliferator-activated receptor gamma/Nuclear receptor coactivator 1, sequence (Q15788 whole entry, further chain): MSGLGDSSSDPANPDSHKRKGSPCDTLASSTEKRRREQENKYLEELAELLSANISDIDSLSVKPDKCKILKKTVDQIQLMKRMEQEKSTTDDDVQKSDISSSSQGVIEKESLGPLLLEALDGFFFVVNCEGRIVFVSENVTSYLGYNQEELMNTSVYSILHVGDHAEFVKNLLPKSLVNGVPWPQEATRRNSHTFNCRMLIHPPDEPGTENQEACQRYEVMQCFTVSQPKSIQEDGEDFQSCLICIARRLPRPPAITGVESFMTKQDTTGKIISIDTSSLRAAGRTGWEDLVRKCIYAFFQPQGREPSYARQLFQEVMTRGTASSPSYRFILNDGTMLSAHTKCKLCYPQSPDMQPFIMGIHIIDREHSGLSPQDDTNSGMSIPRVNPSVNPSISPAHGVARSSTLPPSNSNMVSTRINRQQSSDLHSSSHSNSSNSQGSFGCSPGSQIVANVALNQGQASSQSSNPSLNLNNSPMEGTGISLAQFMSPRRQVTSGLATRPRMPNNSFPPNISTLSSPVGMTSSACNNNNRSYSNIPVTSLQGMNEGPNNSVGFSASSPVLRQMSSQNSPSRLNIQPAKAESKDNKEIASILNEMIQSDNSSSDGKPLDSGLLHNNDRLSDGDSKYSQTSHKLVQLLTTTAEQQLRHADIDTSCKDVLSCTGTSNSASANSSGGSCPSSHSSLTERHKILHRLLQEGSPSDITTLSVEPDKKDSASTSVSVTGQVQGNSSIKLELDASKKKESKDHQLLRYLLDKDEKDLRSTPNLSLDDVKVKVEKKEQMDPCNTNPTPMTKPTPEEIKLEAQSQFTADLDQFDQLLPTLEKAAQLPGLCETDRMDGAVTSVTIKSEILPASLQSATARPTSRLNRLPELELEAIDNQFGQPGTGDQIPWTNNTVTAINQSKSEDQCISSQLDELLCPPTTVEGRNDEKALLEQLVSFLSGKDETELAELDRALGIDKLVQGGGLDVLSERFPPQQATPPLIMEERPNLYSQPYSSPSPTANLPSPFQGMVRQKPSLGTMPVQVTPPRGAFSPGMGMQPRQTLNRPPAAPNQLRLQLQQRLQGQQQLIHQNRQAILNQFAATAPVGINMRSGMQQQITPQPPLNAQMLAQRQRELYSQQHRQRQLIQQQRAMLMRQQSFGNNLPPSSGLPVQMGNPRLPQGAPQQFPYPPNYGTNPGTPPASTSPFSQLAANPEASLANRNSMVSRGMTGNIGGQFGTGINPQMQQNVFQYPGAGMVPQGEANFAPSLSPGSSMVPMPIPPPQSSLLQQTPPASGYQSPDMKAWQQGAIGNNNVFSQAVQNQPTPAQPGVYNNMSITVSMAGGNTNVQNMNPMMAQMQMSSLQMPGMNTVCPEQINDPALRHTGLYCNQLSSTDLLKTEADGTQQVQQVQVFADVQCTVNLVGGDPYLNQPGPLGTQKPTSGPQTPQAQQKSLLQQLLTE
Experiment [8] deals with Peroxisome proliferator-activated receptor gamma/Nuclear receptor coactivator 3 (Homo sapiens, UniProt P37231). The class given is functional.
Peroxisome proliferator-activated receptor gamma/Nuclear receptor coactivator 3, sequence (P37231 whole entry): as the sequence (P37231 whole entry) above
Peroxisome proliferator-activated receptor gamma/Nuclear receptor coactivator 3, sequence (Q9Y6Q9 whole entry, further chain): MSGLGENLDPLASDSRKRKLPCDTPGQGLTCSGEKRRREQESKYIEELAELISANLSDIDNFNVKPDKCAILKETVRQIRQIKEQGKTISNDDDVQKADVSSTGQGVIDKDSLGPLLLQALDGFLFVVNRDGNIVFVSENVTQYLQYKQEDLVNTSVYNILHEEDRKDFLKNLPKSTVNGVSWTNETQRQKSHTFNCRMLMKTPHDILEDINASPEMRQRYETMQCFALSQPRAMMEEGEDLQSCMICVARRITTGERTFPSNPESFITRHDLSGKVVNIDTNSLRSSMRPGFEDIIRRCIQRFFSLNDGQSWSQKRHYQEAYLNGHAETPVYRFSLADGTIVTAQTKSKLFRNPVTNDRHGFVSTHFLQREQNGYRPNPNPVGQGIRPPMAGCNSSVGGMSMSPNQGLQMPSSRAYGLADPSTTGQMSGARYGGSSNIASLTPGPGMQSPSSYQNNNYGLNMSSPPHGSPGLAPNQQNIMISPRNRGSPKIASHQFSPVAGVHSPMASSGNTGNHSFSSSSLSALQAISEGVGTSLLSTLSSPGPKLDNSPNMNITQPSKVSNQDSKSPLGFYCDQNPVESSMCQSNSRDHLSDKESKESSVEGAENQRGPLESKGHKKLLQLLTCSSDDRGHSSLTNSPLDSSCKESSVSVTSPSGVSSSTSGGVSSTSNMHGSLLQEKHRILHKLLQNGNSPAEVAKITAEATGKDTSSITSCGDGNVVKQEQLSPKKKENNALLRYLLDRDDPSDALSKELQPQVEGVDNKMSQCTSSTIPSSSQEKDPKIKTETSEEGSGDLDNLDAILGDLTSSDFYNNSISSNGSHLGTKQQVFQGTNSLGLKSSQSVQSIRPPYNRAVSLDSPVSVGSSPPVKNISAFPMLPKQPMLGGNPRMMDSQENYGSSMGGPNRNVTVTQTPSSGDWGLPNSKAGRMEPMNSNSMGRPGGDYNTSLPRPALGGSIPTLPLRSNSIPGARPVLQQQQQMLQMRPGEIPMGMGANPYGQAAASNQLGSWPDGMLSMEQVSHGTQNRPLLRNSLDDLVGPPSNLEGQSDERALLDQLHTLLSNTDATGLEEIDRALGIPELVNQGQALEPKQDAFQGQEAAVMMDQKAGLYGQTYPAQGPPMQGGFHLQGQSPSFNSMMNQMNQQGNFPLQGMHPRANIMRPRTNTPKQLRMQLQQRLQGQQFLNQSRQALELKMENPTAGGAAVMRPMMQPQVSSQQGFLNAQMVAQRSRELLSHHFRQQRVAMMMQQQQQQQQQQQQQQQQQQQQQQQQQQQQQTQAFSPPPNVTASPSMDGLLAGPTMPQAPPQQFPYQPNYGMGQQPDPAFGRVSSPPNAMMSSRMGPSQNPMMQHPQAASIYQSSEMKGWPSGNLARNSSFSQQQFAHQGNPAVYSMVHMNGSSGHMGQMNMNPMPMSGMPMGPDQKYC
Experiment [9] concerns the target Peroxisome proliferator-activated receptor gamma/Nuclear receptor coactivator 2 (Homo sapiens, UniProt P37231). The format is functional.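 Further: agonist potency for raising coactivator recruitment to the receptor.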
In experiment [10] the target is Induced myeloid leukemia cell differentiation protein Mcl-1 (Homo sapiens, UniProt Q07820). The format is functional.
Induced myeloid leukemia cell differentiation protein Mcl-1, sequence (Q07820 whole entry): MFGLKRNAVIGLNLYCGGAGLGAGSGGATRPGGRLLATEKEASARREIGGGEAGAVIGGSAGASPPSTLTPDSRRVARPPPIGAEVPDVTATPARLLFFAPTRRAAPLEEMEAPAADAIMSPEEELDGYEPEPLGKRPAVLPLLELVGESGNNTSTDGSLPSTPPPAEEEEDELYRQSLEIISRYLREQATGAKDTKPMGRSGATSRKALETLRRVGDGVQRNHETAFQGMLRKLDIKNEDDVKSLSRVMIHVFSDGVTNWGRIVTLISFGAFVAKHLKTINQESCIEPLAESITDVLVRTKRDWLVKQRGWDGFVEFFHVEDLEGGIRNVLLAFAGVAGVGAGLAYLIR
The target of the next experiment is T4, Aminopeptidase N (Plasmodium falciparum FcB1/Columbia, UniProt O96935).
T4 sequence (O96935 whole entry): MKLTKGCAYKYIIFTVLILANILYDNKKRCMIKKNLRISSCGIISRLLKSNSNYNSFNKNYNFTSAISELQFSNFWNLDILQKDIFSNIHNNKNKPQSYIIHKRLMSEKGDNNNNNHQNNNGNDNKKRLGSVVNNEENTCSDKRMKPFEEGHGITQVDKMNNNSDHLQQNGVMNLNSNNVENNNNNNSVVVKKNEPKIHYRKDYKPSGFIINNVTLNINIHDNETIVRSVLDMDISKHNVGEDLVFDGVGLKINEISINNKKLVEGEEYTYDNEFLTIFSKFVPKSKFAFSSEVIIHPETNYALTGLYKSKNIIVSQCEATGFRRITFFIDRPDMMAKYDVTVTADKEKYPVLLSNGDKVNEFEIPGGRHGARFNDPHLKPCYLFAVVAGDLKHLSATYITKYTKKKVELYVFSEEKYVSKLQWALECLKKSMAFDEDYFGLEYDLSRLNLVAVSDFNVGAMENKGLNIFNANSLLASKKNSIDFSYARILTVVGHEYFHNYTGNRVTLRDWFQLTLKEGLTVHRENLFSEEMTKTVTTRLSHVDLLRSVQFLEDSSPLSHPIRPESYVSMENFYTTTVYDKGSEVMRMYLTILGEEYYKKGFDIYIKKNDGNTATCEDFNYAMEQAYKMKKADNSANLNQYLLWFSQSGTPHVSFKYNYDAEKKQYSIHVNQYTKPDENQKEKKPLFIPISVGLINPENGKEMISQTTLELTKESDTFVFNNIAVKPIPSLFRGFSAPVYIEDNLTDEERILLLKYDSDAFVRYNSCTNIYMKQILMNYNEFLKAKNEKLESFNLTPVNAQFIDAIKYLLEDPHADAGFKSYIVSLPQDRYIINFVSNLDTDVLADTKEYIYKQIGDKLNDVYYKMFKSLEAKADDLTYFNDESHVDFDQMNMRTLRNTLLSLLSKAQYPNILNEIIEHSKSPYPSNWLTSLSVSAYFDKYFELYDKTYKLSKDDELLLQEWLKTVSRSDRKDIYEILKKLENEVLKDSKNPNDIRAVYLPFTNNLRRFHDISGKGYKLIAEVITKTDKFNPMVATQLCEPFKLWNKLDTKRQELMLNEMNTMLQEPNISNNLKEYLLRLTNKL
Kind of experiment: malaria alanyl aminopeptidase activity blockers – biochemical, fluorogenic H-Leu-NHMec substrate, 1536-well (AID 1445). Also on record: species or system Plasmodium falciparum 3D7, 3D7.

The nature of experiment [11]: Luminescence Cell-Based Dose Confirmation HTS to Identify Activators of 5'UTR Stem-Loop Driven Alpha-Synuclein mRNA Translation in H4 Neuroglioblastoma Cells. [Related pubchem assays: 1829 (Project Summary), 1814 (Primary HTS)]. The format is functional.
The nature of experiment [12]: Luminescence Cell-Based Dose Response HTS to Identify Activators of Luciferase Translation or Activity in H4 […] Cells. [Related pubchem assays: 1829 (Project Summary), 1814 (Primary HTS)]. The format is functional.
The test system of another experiment is H4. Nature of the experiment: Luminescence Cell-Based Dose Response HTS to Identify Activators of 5'UTR Stem-Loop Driven Prion Protein mRNA Translation in H4 Neuroglioblastoma Cells. [Related pubchem assays: 1829 (Project Summary), 1814 (Primary HTS)]. The format is functional. The note with it: Homo sapiens.
Experiment [13] in a line: non-specific 3'UTR reporter inhibition in Clone20-Shn3RL – cell-based, Renilla luciferase, cherry-picked, counter-screen for Shn3 inhibitor project, dose response (AID 624133). The format is functional.
The nature of experiment [14]: loss of viability in HepG2 cells – cell-based, CellTiter-Glo, cherry-picked, cytotoxicity control for Shn3 inhibitor project, dose response (AID 624134). The format is functional. For orientation: ATP-based viability assays read luminescence as a measure of living cells.
Experiment [15] is described as follows: reduction of Shn3 3'UTR-driven luciferase in osteoblasts – cell-based, Clone20 osteoblasts, firefly luciferase, cherry-picked, dose response (AID 624132).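 Further: firefly luciferase luminescence from reporter carrying the Shn3 3'UTR in osteoblasts.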 The format is functional.
Experiment [16] concerns the target T5, Microphthalmia-associated transcription factor (Homo sapiens, UniProt O75030).
T5 sequence (O75030 whole entry): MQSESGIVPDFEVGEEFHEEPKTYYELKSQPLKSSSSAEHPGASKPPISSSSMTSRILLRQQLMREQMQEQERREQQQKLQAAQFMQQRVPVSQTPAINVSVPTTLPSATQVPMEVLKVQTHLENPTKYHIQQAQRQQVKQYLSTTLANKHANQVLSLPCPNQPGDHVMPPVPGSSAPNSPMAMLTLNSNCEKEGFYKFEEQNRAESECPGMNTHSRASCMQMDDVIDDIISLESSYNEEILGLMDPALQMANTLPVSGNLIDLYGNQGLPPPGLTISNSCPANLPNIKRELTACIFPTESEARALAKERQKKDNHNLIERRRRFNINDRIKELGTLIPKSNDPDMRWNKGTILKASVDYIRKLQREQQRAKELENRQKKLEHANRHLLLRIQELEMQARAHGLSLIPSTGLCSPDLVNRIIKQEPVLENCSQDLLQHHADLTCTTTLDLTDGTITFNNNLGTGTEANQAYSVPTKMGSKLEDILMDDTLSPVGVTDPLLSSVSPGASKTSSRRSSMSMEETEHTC
Kind of experiment: reducers of TRPM1 reporter luminescence, concentration series – cell-based, SK-MEL-5, cherry-picked, set 3, MITF inhibitor project, dose response (AID 493073).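 Further: SK-MEL-5 melanoma cells with luciferase driven by the MITF target TRPM1 promoter.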 The class given is functional.

Calls of active or inactive are those of the source.

For orientation: IC50 means the concentration at which inhibition is half-maximal. For the molecule `Cc1ccc(C2C=C(c3ccccc3)Nc3nc(N4C(=O)CCC4=O)nn32)cc1` (stereo not given), the EC50 in experiment [1] was > 53 µM (inactive). In addition, the IC50 at Prothrombin was 10.9 µM (active).
Take `O=C(NCc1ccco1)c1ccc(Cl)nc1`: the IC50 in experiment [2] was > 50 µM (inactive); in [3], 26.5 µM (active).
By CC50 is commonly meant the concentration giving 50% cytotoxicity. `O=C(Nc1nc2ccccc2[nH]1)c1cccc(Cl)c1`: the EC50 was > 150 µM (not active) on Streptokinase A, 69.4 µM (active) in the experiment with Streptococcus and 8.88 µM (active) in experiment [5]. The CC50 in experiment [4] is > 40 µM (active); in experiment [6], > 20 µM (active). The IC50 in the experiment “cells” was 7.11 µM (active).
For the molecule `O=c1c2ccccc2nc(-c2ccccc2)n1CCCN1CCOCC1`, the EC50 in [7], in [8] and in [9] was > 79.4 µM (not active) each time.
On to `CN1CCN(NS(=O)(=O)c2cccs2)CC1`, for which the IC50 in experiment [2] is > 50 µM (inactive); in [3], 51.3 µM (active).
Turning to `Cc1ccc(C(=O)Nc2ccc(N3CCCC3)cc2)cc1`, the IC50 in experiment [10] is recorded as 17.9 µM (not active). The EC50 in experiment [7], in experiment [8] and in experiment [9] was > 79.4 µM (not active) each time.
Take `C=CCn1c(Cc2cccs2)nnc1SCC(=O)c1ccc(F)cc1`: the EC50 in experiment [7], in experiment [8] and in experiment [9] was > 79.4 µM (not active) in each case.
Consider `COc1ccc(C(=O)Nc2cccc(/C=C(\CCC(=O)O)c3nc4ccccc4s3)c2)cc1`, for which the values for the EC50 (on Streptokinase A; in the experiment with Streptococcus; in experiment [5]) were > 50 µM (not active), 22.9 µM (active) and 7.83 µM (active), respectively. Besides, the IC50 in experiment [10] is 4.32 µM (active); in experiment [2] it was > 50 µM (inactive); at Aminopeptidase N, 21.8 µM (active); in experiment [3], 4.28 µM (active).
Turning to `O=C(CC(=O)c1cc(Cl)ccc1O)c1ccccc1`, the EC50 on Streptokinase A is > 150 µM (not active); in the experiment with Streptococcus, 10.8 µM (active); in experiment [5], 1.08 µM (active). Besides, the results for the CC50 in experiment [4] and in [6] were 14.6 µM (active) and 8.73 µM (active), respectively. In the experiment “cells”, the IC50 is 9.73 µM (active).
As to `NC(=O)c1ccsc1NC(=O)CSc1nnc(C2CC2)n1Cc1ccccc1`, the IC50 against Prothrombin is reported as > 50 µM (not active).
Turning to `O=C(CSc1nc2nncc-2c(O)[nH]1)N1CCCCC1`, the IC50 on Prothrombin is > 50 µM (not active).
For the molecule `Cn1c(=O)c(C(=O)NC2CCCCCCC2)c(O)c2ccccc21`, the EC50 in experiment [7] was > 79.4 µM (not active); in experiment [8], > 79.4 µM (not active); in [11] it was 15.6 µM (active); in [12], 22.8 µM (active); in [9], 69.1 µM (not active); in the experiment on H4 it was > 120 µM (not active).
A word on the AC50: it is the concentration giving half of the maximal activity seen. For the molecule `Cn1cccc1C(=O)NC(=O)COC(=O)c1ccc(S(C)(=O)=O)c([N+](=O)[O-])c1`, the AC50 in experiment [13] was 13.6 µM (active); in experiment [14], 26 µM (active); in experiment [15] it was 15.1 µM (active); in [16], 9.23 µM (active).
`CCN(CC)c1ccc(/C=N/c2cc(C)ccc2C)c(O)c1`: the EC50 in [7], in experiment [8] and in experiment [9] was > 79.4 µM (not active) each time.
